# Test results taken from patent US10398727B2, “Methods for the treatment and prevention of asbestos-related diseases” (University of Technology, Sydney, priority 2014, dated 2019).
# System: crocidolite-induced mesothelioma in MexTAg299 transgenic mice
# Assay: Effect of CM on asbestos-induced mesothelioma in MexTAg299 mice (Example 2)
# Settings: mouse, in vivo
# Procedure: MexTAg299 transgenic mice are suitable for testing asbestos-induced mesothelioma with 100% incidence. MexTAg mice exposed to asbestos develop cancer that faithfully replicates key features of the pathogenesis of human mesothelioma.
# Controls were normal saline (0.9%) or CM at 90 mg/kg (3 mice each).
substance,measurement,value
clinoptilolite [CM],Mesothelioma (number of mice),0
